Columns and labels:
HS-PSS [1] = test: drug sensitivity score (DSS, CellTiter-Glo viability, 72 h) (DSS (dimensionless)); higher = more sensitive; extreme values may be limits of the assay
In short: (§1)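 Viability of MPNST cell lines and primary human Schwann cells was read as CellTiter-Glo ATP luminescence after 72 h at 37 °C, 5% CO2, in 384-well plates seeded with 750–1000 cells per well. Each compound had been preprinted at five concentrations in 10-fold steps. Signals were scaled between vehicle and positive-control wells, duplicates averaged where present, and fitted with four-parameter logistic curves. Drug sensitivity score and relative IC50 (censored at the top concentration) come from those fits, and percent inhibition is taken at the top concentration.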

HS-Sch-2 [2] = test: as above
In short: as §1

YST-1 [3] = test: as above
In short: as §1

HS-PSS [4] = test: drug sensitivity score (DSS, CellTox-Green cytotoxicity, 72 h) (DSS (dimensionless)); higher = more cytotoxic; extreme values may be limits of the assay
In short: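 MPNST cell lines and primary human Schwann cells were grown for 72 h at 37 °C in 384-well plates containing five 10-fold compound dilutions. CellTox-Green, added before seeding at a final 1:1000 dilution, gave fluorescence from DNA released by disrupted cells, and signals were scaled to vehicle and positive-control wells. Curves were fitted with a four-parameter logistic model. Drug sensitivity score and relative IC50 come from these fits, with IC50 censored at the top concentration.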

HS-PSS [5] = test: % inhibition of CellTiter-Glo viability at highest tested concentration (72 h), relative to DMSO and benzethonium chloride controls; higher = more inhibition
In short: as §1

HS-Sch-2 [6] = test: as above
In short: as §1

YST-1 [7] = test: as above
In short: as §1

Compound	drug sensitivity score (HS-PSS [1])	drug sensitivity score (HS-Sch-2 [2])	drug sensitivity score (YST-1 [3])	drug sensitivity score (HS-PSS [4])	% inhibition (HS-PSS [5]) [%]	% inhibition (HS-Sch-2 [6]) [%]	% inhibition (YST-1 [7]) [%]
c1cc(CN2CCCNCCNCCCNCC2)ccc1CN1CCCNCCNCCCNCC1 [Plerixafor] (max concentration tested 10000 nM)	0.55	0	0	0	14.2	5.96	-8.03
Cc1cc(C)c(/C=C2\C(=O)Nc3ccccc32)[nH]1 [Semaxanib] (max concentration tested 10000 nM)	0	0	2.84	4.89	0.19	-7.06	14.4
CCn1cc(-c2ccnc3[nH]c(-c4cccc(CN(C)C)c4)cc23)c(-c2ccc(NC(=O)N(C)C)cc2)n1 (max concentration tested 1000 nM)	4.28	4.77	10.8	0	46.2	54	33.4
Cn1cc(C[C@@H](N)C(=O)O)c2ccccc21 [1-methyl-D-tryptophan] (max concentration tested 5000 nM)	0	0	0	0	6.24	2.88	-5.86
Cn1cc(C2=Nc3cc(NC(=O)C(N)C4CCCCC4)cc4c3C2=CNNC4=O)cn1 (configuration not stated) (max concentration tested 10000 nM)	8.91	22.7	14.8	0	43.5	84.3	51.3
O=C(/C=C\n1cnc(-c2cc(C(F)(F)F)cc(C(F)(F)F)c2)n1)NNc1ccccn1 [Verdinexor] (max concentration tested 1000 nM)	5.78	9.76	8.71	0.01	60	97	88.9
Cc1sc2c(c1C)C(c1ccc(Cl)cc1)=N[C@@H](CC(=O)Nc1ccc(O)cc1)c1nnc(C)n1-2 [OTX015] (max concentration tested 10000 nM)	10.7	14.6	14.5	0	59.5	75.4	69.2
CCCC(CCC)C(=O)O [Valproic acid] (max concentration tested 1000000 nM)	0	0	2.34	0	6.13	2.29	44.2
COc1cc2c(Nc3ccc(Cl)c(Cl)c3F)ncnc2cc1OC[C@H]1C[C@@H]2CN(C)C[C@@H]2C1 [XL-647] (max concentration tested 1000 nM)	0.99	1.16	1.63	0	30.7	31.1	26.5
N#CC1(c2ccc(NC(=O)c3cccnc3NCc3ccncc3)cc2)CCCC1 [Apatinib] (max concentration tested 10000 nM)	0	0	1.19	0	11.6	-2.67	18.9
C=CC(=O)N1CCC(Oc2cc3c(Nc4ccc(Cl)c(Cl)c4F)ncnc3cc2OC)CC1 [Poziotinib] (max concentration tested 1000 nM)	0	0	0.25	0	6.52	3.19	12.9
CNc1ncc2cc(-c3cc(NC(=O)NCCC(C)(C)C)c(F)cc3C)c(C)nc2n1 (max concentration tested 10000 nM)	3.13	10.8	6.37	0.82	69.1	55.9	46.5
Nc1nc(N)c2nc(-c3cccc(O)c3)c(-c3cccc(O)c3)nc2n1 [TG100-115] (max concentration tested 10000 nM)	0	0	1.38	0	9.07	10.8	20.9
CNC(=O)c1ccc2cc([C@@]3(O)CCn4cncc43)ccc2c1 [Orteronel] (max concentration tested 10000 nM)	0	0	0	0	-7	-4.34	7.23
CCN1CCN(Cc2ccc(Nc3ncc(F)c(-c4cc(F)c5nc(C)n(C(C)C)c5c4)n3)nc2)CC1 [Abemaciclib] (max concentration tested 2500 nM)	1.78	1.05	6.03	0.89	22	31.6	28.3
CN(C)C(=N)NC(=N)N [Metformin] (max concentration tested 100000 nM)	0.59	0	0	0	19.4	7.35	-0.71
Cn1nnc2c(C(N)=O)ncn2c1=O [Temozolomide] (max concentration tested 100000 nM)	0	1.67	0.08	0	8.55	20.4	11.6
O=C(NOCC1CC1)c1ccc(F)c(F)c1Nc1ccc(I)cc1Cl (max concentration tested 10000 nM)	0.51	5.05	1.6	0	21.5	55.9	24.6

Compound	drug sensitivity score (HS-PSS [1])	drug sensitivity score (HS-Sch-2 [2])	drug sensitivity score (YST-1 [3])	drug sensitivity score (HS-PSS [4])	% inhibition (HS-PSS [5]) [%]	% inhibition (HS-Sch-2 [6]) [%]	% inhibition (YST-1 [7]) [%]
CS(=O)(=O)c1ccc(-c2cnc(N)c(C(=O)Nc3ccccc3)n2)cc1 [VE-821] (max concentration tested 10000 nM)	0.05	0	0	0	10.4	5.62	7.49
Cc1cc(Nc2cc(N3CCN(C)CC3)nc(/C=C/c3ccccc3)n2)n[nH]1 [ENMD-2076] (max concentration tested 10000 nM)	8.13	12.1	10.8	1.84	70.5	95.5	63.9
Cn1cc(-c2ccc3nnc(Sc4ccc5ncccc5c4)n3n2)cn1 [SGX-523] (max concentration tested 5000 nM)	0	0	0	0	2.63	5.27	-2.5
CC(=O)NCC(=O)N1[C@@H]2CC[C@H]1c1ccc(Nc3ncc(C(F)(F)F)c(NC4CCC4)n3)cc12 (max concentration tested 10000 nM)	9.91	11.5	10.5	1.86	87.8	99.3	82.8
CC(C)N(C[C@H]1O[C@@H](n2cnc3c(N)ncnc32)[C@H](O)[C@@H]1O)[C@H]1C[C@@H](CCc2nc3cc(C(C)(C)C)ccc3[nH]2)C1 [Pinometostat] (max concentration tested 1000 nM)	0	0	0	0	5.45	-7.39	-2.52
FC(F)(F)c1ccc(CNc2ccc(Cc3c[nH]c4ncc(Cl)cc34)cn2)cn1 [Pexidartinib] (max concentration tested 10000 nM)	1.79	0.57	0.84	0	25.9	18.9	17.3
Cc1cccc(CC(=O)N2CCc3c2ccc(-c2cn(C)c4ncnc(N)c24)c3F)n1 (max concentration tested 2500 nM)	0.96	0.16	0.36	0	29.6	16.1	14.4
CN(C)c1cc2c(cc1Sc1nc3c(N)nccc3n1CCNCC(C)(C)C)OCO2 [CUDC-305] (max concentration tested 10000 nM)	13.1	19.6	12.6	4.43	84.7	101	81.7
COc1ccc(C[C@H](NC(=O)[C@H](C)NC(=O)CN2CCOCC2)C(=O)N[C@@H](Cc2ccccc2)C(=O)[C@@]2(C)CO2)cc1 [ONX-0914] (max concentration tested 10000 nM)	17.6	21.7	18.1	17.5	100	101	101
O=C(Nc1cccc(Nc2ncc(Br)c(NCCc3cnc[nH]3)n2)c1)N1CCCC1 [BX-912] (max concentration tested 10000 nM)	3.51	4.94	8.47	0	44.8	78.4	67
CN(C)C(=O)c1cc2cnc(Nc3ccc(N4CCNCC4)cn3)nc2n1C1CCCC1 [Ribociclib] (max concentration tested 10000 nM)	1.83	1.85	6.07	0	28.2	25.4	67
CN(C)C1CCN(C(=O)c2ccc(NC(=O)Nc3ccc(-c4nc(N5CCOCC5)nc(N5CCOCC5)n4)cc3)cc2)CC1 [Gedatolisib] (max concentration tested 1000 nM)	17.4	12	19.4	0	73.4	80.3	93.2
NC(=O)c1cccc2cn(-c3ccc(C4CCCNC4)cc3)nc12 (configuration not stated) [Niraparib] (max concentration tested 10000 nM)	4.28	2.37	7.91	0.21	50.4	26.4	54.5
O=C(/C=C\n1cnc(-c2cc(C(F)(F)F)cc(C(F)(F)F)c2)n1)NNc1cnccn1 [Selinexor] (max concentration tested 10000 nM)	11.3	19.8	21.4	1.86	72.3	101	95.3
Cc1nc(-c2cn3c(n2)-c2ccc(-c4cnn(C(C)(C)C(N)=O)c4)cc2OCC3)n(C(C)C)n1 [Taselisib] (max concentration tested 1000 nM)	0.7	0.87	11.9	0	26.4	18.1	66.6
NCCNc1ccc(NCCN)c2c1C(=O)c1ccncc1C2=O [Pixantrone] (max concentration tested 10000 nM)	4.51	2.43	2.81	0	77.4	50.7	54.6
CCc1c2c(nc3ccc(O)cc13)-c1cc3c(c(=O)n1C2)COC(=O)[C@]3(O)CC [SN-38] (max concentration tested 10000 nM)	22.9	36.1	36.9	20.4	77.9	100	99.7
CC1(C)CCC(CN2CCN(c3ccc(C(=O)NS(=O)(=O)c4ccc(NCC5CCOCC5)c([N+](=O)[O-])c4)c(Oc4cnc5[nH]ccc5c4)c3)CC2)=C(c2ccc(Cl)cc2)C1 [Venetoclax] (max concentration tested 1000 nM)	0	0	0.21	0	-9.6	0.97	16.4

Reference: the supplement of paper PMC5579334
